From patent US12122800B2, “Inhibitors of MEK kinase” (Kinnate Biopharma Inc., priority 2022, dated 2024)

tested on: A375 pERK; assay: Cellular assay monitoring phosphorylation of ERK (HTRF phospho-ERK Thr202/Tyr204) in A-375 cells; type: cell-based; details: Homo sapiens, melanoma derived cell line A-375 (BRAF V600 activating mutation), 1 hour incubation with compound
Method: To determine the effect of the MEK inhibitor compounds disclosed herein on cellular MAPK signaling downstream of MEK, an assay monitoring phosphorylation of ERK was used. Melanoma derived cell line A-375, which harbors a BRAF V600 activating mutation was cultured and maintained as specified by the supplier (ATCC: Cat #CRL-1619; American Type Culture Collection; Manassas, VA 20110). Cells were seeded at 8000 cells/well in 24 μL growth media in a 384-well plate and allowed to adhere at 37° C. with 5% CO2 overnight. The following day, compounds were serially diluted into 10-point, 3-fold dilution curves in 384 well plates. Compound was transferred to cell plates using Echo550 such that the final concentration range was 0.508 nM to […] in […] with 0.1% DMSO being used as negative control. Cells were incubated with compounds for 1 hour at 37° C. with […]. Cells were lysed by addition of 8 μL 4× lysis buffer provided with HTRF kit (Advanced phospho-ERK (Thr202/Tyr204) cellular kit; Cisbio; Cat #64AERPEH) plus 1× protease/phosphatase inhibitor cocktail. 20 μL lysate was transferred to HTRF plate followed by 2.5 μL each of anti-ERK1/2-Europium/Terbium Cryptate and anti-phospho-ERK1/2 antibody solutions per manufacturer's instructions and incubated. Specific signal was measured at […] on a Perkin Elmer Envision 2105 and the ratios used to calculate IC50 values within the Dotmatics Knowledge Solutions Studies curve fitting environment (Dotmatics, Bishops Stortford, UK, CM23) and are presented in Table 8.

Row | SMILES | IC50 [nM]
1 | CC[P@@](C)(=O)c1ccncc1Nc1ccc(I)cc1F (single isomer, unassigned) [Example 8] | 10 to 100
2 | CP(C)(=O)c1ccc(F)c(F)c1Nc1ccc(I)cc1F [Example 4, 6-(Dimethylphosphoryl)-2,3-difluoro-N-(2-fluoro-4-iodophenyl)aniline] | ≤ 1000
3 | CP(C)(=O)c1c(Cl)cncc1Nc1ccc(C2CC2)cc1F [Example 32, (3-Chloro-5-((4-cyclopropyl-2-fluorophenyl)amino)pyridin-4-yl)dimethylphosphine oxide] | 10 to 100
4 | CCP(=O)(CC)c1ccncc1Nc1ccc(Br)cc1F [Example 11, N-(4-bromo-2-fluorophenyl)-4-(diethylphosphoryl)pyridin-3-amine] | 100 to 1000
5 | CP(C)(=O)c1c(Cl)cncc1Nc1ccc(Br)cc1F [Example 29, (3-((4-Bromo-2-fluorophenyl)amino)-5-chloropyridin-4-yl)dimethylphosphine oxide] | 10 to 100
6 | CCP(=O)(CC)c1ccncc1Nc1ccc(I)cc1F [Example 6, 4-(Diethylphosphoryl)-N-(2-fluoro-4-iodophenyl)pyridin-3-amine] | 10 to 100
7 | CP(C)(=O)c1ccncc1Nc1ccc(Br)cc1F [Example 10, N-(4-Bromo-2-fluorophenyl)-4-(dimethylphosphoryl)pyridin-3-amine] | 100 to 1000
8 | CP(C)(=O)c1ccncc1Nc1ccc(I)cc1F [Example 1, 4-(Dimethylphosphoryl)-N-(2-fluoro-4-iodophenyl)pyridin-3-amine] | > 10
9 | C#Cc1ccc(Nc2cnccc2P2(=O)CCCC2)c(F)c1 [Example 15, 1-(3-((4-Ethynyl-2-fluorophenyl)amino)pyridin-4-yl)phospholane 1-oxide] | 100 to 1000
10 | CP(C)(=O)c1ccc(F)cc1Nc1ccc(I)cc1F [Example 2, 2-(Dimethylphosphoryl)-5-fluoro-N-(2-fluoro-4-iodophenyl)aniline] | ≤ 1000
11 | O=P1(c2ccncc2Nc2ccc(Br)cc2F)CCCC1 [Example 12, 1-(3-((4-Bromo-2-fluorophenyl)amino)pyridin-4-yl)phospholane 1-oxide] | 100 to 1000
12 | C#Cc1ccc(Nc2cnccc2[P@@](C)(=O)CC)c(F)c1 (single isomer, unassigned) [Example 20] | 100 to 1000
13 | CP(C)(=O)c1ccncc1Nc1ccc(I)cc1 [Example 22, 4-(Dimethylphosphoryl)-N-(4-iodophenyl)pyridin-3-amine] | 10 to 100
14 | CP(C)(=O)c1cc(F)ncc1Nc1ccc(I)cc1F [Example 21, (2-Fluoro-5-((2-fluoro-4-iodophenyl)amino)pyridin-4-yl)dimethylphosphine oxide] | 100 to 1000
15 | CP(C)(=O)c1c(F)cncc1Nc1ccc(I)cc1F [Example 24, 4-(Dimethylphosphoryl)-5-fluoro-N-(2-fluoro-4-iodophenyl)pyridin-3-amine] | > 10
16 | C#Cc1ccc(Nc2cnccc2P(C)(C)=O)c(F)c1 [Example 14, (3-((4-Ethynyl-2-fluorophenyl)amino)pyridin-4-yl)dimethylphosphine oxide] | 10 to 100

Row | SMILES | IC50 [nM]
17 | CP(C)(=O)c1ccncc1Nc1ccc(I)c(F)c1F [Example 3, N-(2,3-Difluoro-4-iodophenyl)-4-(dimethylphosphoryl)pyridin-3-amine] | 10 to 100
18 | CP(C)(=O)c1ccnc(F)c1Nc1ccc(I)cc1F [Example 25, (2-Fluoro-3-((2-fluoro-4-iodophenyl)amino)pyridin-4-yl)dimethylphosphine oxide] | 10 to 100
19 | CC[P@@](C)(=O)c1ccncc1Nc1ccc(Br)cc1F (single isomer, unassigned) [Example 16] | 100 to 1000
20 | CP(C)(=O)c1ccncc1Nc1ccc(C2CC2)cc1F [Example 23, N-(4-Cyclopropyl-2-fluorophenyl)-4-(dimethylphosphoryl)pyridin-3-amine] | 10 to 100
21 | CCP(C)(=O)c1ccncc1Nc1ccc(I)cc1F (centres unmarked) [Example 7, 4-[Ethyl(methyl)phosphoryl]-N-(2-fluoro-4-iodophenyl)pyridin-3-amine] | 10 to 100
22 | CP(C)(=O)c1c(F)cncc1Nc1ccc(Br)cc1Cl [Example 26, N-(4-bromo-2-chlorophenyl)-4-(dimethylphosphoryl)-5-fluoropyridin-3-amine] | > 10
23 | C#Cc1ccc(Nc2cnccc2[P@](C)(=O)CC)c(F)c1 (single isomer, unassigned) [Example 19] | 100 to 1000
24 | O=P1(c2ccncc2Nc2ccc(I)cc2F)CCCC1 [Example 5, 1-(3-((2-Fluoro-4-iodophenyl)amino)pyridin-4-yl)phospholane 1-oxide] | 10 to 100
25 | C#Cc1ccc(Nc2cncc(F)c2P(C)(C)=O)c(F)c1 [Example 31, 4-(Dimethylphosphoryl)-N-(4-ethynyl-2-fluorophenyl)-5-fluoropyridin-3-amine] | 10 to 100
26 | Cc1cncc(Nc2ccc(I)cc2F)c1P(C)(C)=O [Example 30, 4-(Dimethylphosphoryl)-N-(2-fluoro-4-iodophenyl)-5-methylpyridin-3-amine] | > 10
27 | CP(C)(=O)c1c(Cl)cncc1Nc1ccc(Br)cc1Cl [Example 28, N-(4-Bromo-2-chlorophenyl)-5-chloro-4-(dimethylphosphoryl)pyridin-3-amine] | 100 to 1000
28 | CC[P@](C)(=O)c1ccncc1Nc1ccc(I)cc1F (single isomer, unassigned) [Example 9] | 10 to 100
29 | CC[P@](C)(=O)c1ccncc1Nc1ccc(Br)cc1F (single isomer, unassigned) [Example 17] | 100 to 1000
30 | CP(C)(=O)c1ccncc1Nc1ccc(Br)cc1Cl [Example 27, N-(4-bromo-2-chlorophenyl)-4-(dimethylphosphoryl) pyridin-3-amine] | 100 to 1000
31 | C#Cc1ccc(Nc2cnccc2P(=O)(CC)CC)c(F)c1 [Example 18, 4-(Diethylphosphoryl)-N-(4-ethynyl-2-fluorophenyl)pyridin-3-amine] | 100 to 1000
32 | CP(C)(=O)c1c(Cl)cncc1Nc1ccc(I)cc1F [Example 13, 5-Chloro-4-(dimethylphosphoryl)-N-(2-fluoro-4-iodophenyl)pyridin-3-amine] | > 10
